Experimental findings from US11311546B2, “Method for enhancing wound healing by administrating adenine” (Energenesis Biomedical Co., Ltd., priority 2017, dated 2022) are described below.

In assay [1] the test system is diabetic wound of db/db mice. As to the kind of experiment: Diabetic wound healing, 0.02% adenine gel on splinted full thickness wound. The assay is classed as in vivo. Conditions: 0.02% adenine in a form of gel, once daily for 15 days. On the procedure:
The BKS. Cg-Dock7^m+/+Lepr^db/Jnarl (db/db) male mice at 8 weeks of age were purchased from the National Laboratory Animal Center (NLAC, R.O.C.). A total number of 10 mice with healthy and intact skin were used for the test for diabetic wound healing. The average±SEM body weight of the mice was 34.5±1.5 g. All mice had fasting blood glucose levels over 300 mg/dL.
The mice were housed individually in stainless steel cage, and were quarantined and acclimated for at least one week prior to test for diabetic wound healing. The temperature and relative humidity were in the range stipulated in the protocol at 21±2° C. and 55±10%, respectively. A 12-h/12-h light/dark cycle was maintained with light on at 7:00 AM and off at 7:00 PM.
The method for applying the composition containing 0.02% of adenine to the diabetic wound of mice was shown as follows. The mice described in Preparation example 4 were randomly divided into two groups of five animals each and then were anesthetized with isoflurane by use of an anesthesia system for rodents (Matrx™ VIP 3000 isoflurane vaporizer, Midmark). […]
(§1) Wounds of each mice were photographed everyday with standardized exposure and focal lengths using a digital camera (Lumix DMC-GF1, Panasonic), and wound areas were analyzed and calculated according to the analysis as described in Example 1.

Assay [2] has as its system pressure ulcer wound of C57BL/6 mice. Briefly: Pressure ulcer healing. The assay is classed as in vivo. The settings on record: 1 to 4,000 μM adenine in normal saline. On the procedure: The C57BL/6 mice approximately at 8 weeks of age were purchased from the National Laboratory Animal Center (NLAC, R.O.C.). The mice were anesthetized with isoflurane using anesthesia system for rodents (Matrx™ VIP 3000 isoflurane vaporizer, Midmark). Before wounding, the dorsal surface was shaved and sterilely prepped with 70% ethanol for surgery. Dorsal skin was positioned between 2 circular magnets having 12-mm diameter for 12 hours and removed from them for 12 hours for 1 ischemia-reperfusion cycle. Pressure ulcer was created by 2 ischemia-reperfusion cycles. The force generated between the 2 magnets was 0.183N for a 5-mm skin bridge between the 2 magnets.
After 2 ischemia-reperfusion cycles, the compositions containing 1 μM to 4,000 μM adenine in normal saline or only normal saline as Control were individually applied on the pressure ulcer wound of mice once daily for 14 days.
as §1

Assay [3] concerns scald burn wound of C57BL/6 mice. As to the kind of experiment: Scald burns healing. The settings on record: 1 to 4,000 μM adenine in normal saline, once daily for 28 days. The class given is in vivo. On the procedure: The C57BL/6 mice approximately at 8 weeks of age were purchased from the National Laboratory Animal Center (NLAC, R.O.C.). The mice were deeply anesthetized by injecting intraperitoneally normal saline mixed with zoletil 50 and 2% rompun in a ratio of 2:1:1 (2 μl per gram of body weight). Each of the mice was shaved by depilatory cream. The shaved dorsal surface of each mice was sterilized with 70% ethanol and then the mice were placed in a restrainer with a 2×3 cm hole at the top. The dorsal surface of mice was exposed toward the hole of restrainer. The water at 60° C. was applied to the dorsal surface of mice for 40 seconds, followed by water at 4° C. for 45 seconds. The mice of Control group was only applied with water at 4° C. for 45 seconds. After scalding, each of the mice was then individually placed in a cage, and fed with diazepam in the drinking water (50 mg/L) for the early 7 days. The mice were monitored every day for body weight of and wound infections. […]
as §1

Assay [4] concerns full-thickness excisional skin wounds of C57BL/6J mice. Briefly: Excisional skin wound healing and scar formation. The class given is in vivo. On the procedure: C57BL/6J mice were maintained at 22° C. under a 12-h light/dark cycle. The experiments were performed with 12-weeks old mice. After anesthetized by an intraperitoneal injection of ketamine ([…]) and xylazine (100 mg/kg), 6-mm full-thickness excisional skin wounds was made on the backs of mice using 6-mm skin biopsy punches. Immediately after wounding, 1 μM to 4000 μM of adenine in […] saline or saline alone was applied to the wound bed. The skin wounds were then covered by semipermeable transparent dressing and fixed to the skin. The mice were treated with adenine or vehicle for 14 days and then sacrificed. The scar formation was assessed by Masson's trichrome staining to observe the fibrosis process and the collagen framework of the healed wound (Fixed by 4% paraformaldehyde).

The next assay deals with ATP. As to the kind of experiment: ATP assay in regenerated skin tissue. The settings on record: db/db mice; 12 days post wounding; ATP colorimetric assay. The assay is classed as in vivo. On the procedure: The process of animal experiment was the same as Example 2, except that after 12 days post wounding, skin tissues of db/db mice were homogenized and centrifuged for 10 mins with 8,000 rpm at 4° C. Supernatant from tissue lysate was filled up in the column and spun down at 1,000×g for 2 minutes. 10 μL of eluate was analyzed using ATP colorimetric assay kit (Biovision).

The test system of another assay is 3T3 cells. As to the kind of experiment: Fibroblast (3T3) cell proliferation assay. The assay is classed as cell-based, Human. Conditions: 72 h; dose-dependent. On the procedure:
[…] fibro blast cell line 3T3 were cultured in high-glucose Dulbecco's modified Eagle's medium (DMEM) containing 10% fetal bovine serum (FBS), 4 mM L-glutamine, 2 mM sodium pyruvate and 1% penicillin/streptomycin (Invitrogen GibeoBRL, Carlsbad, Calif., USA) at 37° C. under 5% CO2. For cell proliferation assay, 3T3 cells were plated at 1×10^5 per well (6-well plate). 24 h after plating, cells were treated with indicated concentration of adenine for 72 h and the number of viable cells was counted. Cells were detached using trypsin-EDTA solution and stained with trypan blue. The living cells were counted using hemocytometer. […] Data were presented as the mean±SEM of three independent experiments.

Another assay has as its system AMPK. As to the kind of experiment: AMPK activation assay (western blot of regenerated skin tissue). The class given is in vivo. The settings on record: db/db mice, 12 days post wounding. On the procedure: Effects of adenine on AMPK activation were evaluated based on the phosphorylation of AMPK and Acetyl-CoA carboxylase (ACC) protein upon adenine treatment. The process of animal experiment was the same as Example 2, except that after 12 days post wounding, skin tissues of db/db mice were homogenized and subject to western blot analysis. Equal amount of proteins from each sample was separated by SDS-PAGE and then electroblotted on to PVDF membranes. Membranes were blocked with 3% BSA in PBS for 60 mins and incubated with an anti-phospho-AMPK (Thr172) antibody (1:2000, Cell Signaling), an anti-AMPK antibody (1:2000, Cell Signaling), an anti-ACC antibody (1:1000, Cell Signaling) or an anti-phospho-ACC antibody (1:1000, Cell Signaling) at 4° C. overnight followed by the corresponding secondary antibody for 1 h at room temperature (RT). Immunoreactive bands were detected by enhanced chemiluminescence (ECL; Pierce, Rockford, Ill., USA) and recorded using Kodak film (Rochester, N.Y., USA). The detected signals were scanned and then quantified using ImageJ software.

The structures appear in SMILES notation.

In the case of `Nc1ncnc2nc[nH]c12` [Adenine, adenine], in assay [1], the “process of diabetic wound healing” value is listed as “efficiently enhance the process of diabetic wound healing”. The “process of healing of pressure ulcer wound” value in assay [2] (once daily for 14 days) is listed as “efficiently enhance the process of healing of pressure ulcer wound”. Also, the “extent of closure versus control mice” value in assay [2] (after 14 day of treatment, dose-dependent) is reported as “significantly greater”. Moreover, in assay [3], the inflammatory response result is “efficiently decrease inflammatory response” and the “process of healing of scald burns wound” value was “enhance the process of healing of scald burns wound”. For the same molecule, in assay [4] (14 days post-wounding, topical treatment, histological examination), the “scar width compared to vehicle treated wounds” value is reported as “significantly decreased”. Moreover, the “extent of closure versus control mice” value in assay [4] (after 14 days of treatment, 1 μM to 4000 μM adenine in saline, dose-dependent) was “significantly greater”. Besides, the “ATP level in regenerated skin tissue” value in the assay on ATP was “efficiently increase ATP level”. Further, the 3T3 cell proliferation entry with 3T3 cells is “significantly inhibited”. Besides, in the assay on AMPK, the “phosphorylation level of ACC in regenerated skin tissue” value is listed as “efficiently enhance phosphorylation level” and the “phosphorylation level of AMPK in regenerated skin tissue” value is on record as “efficiently enhance phosphorylation level”.
